{"source": "patent US7297691B2", "about": "“Treatment of sleep disorders with cholinesterase inhibitors” (priority 2003, dated 2007)", "key": {"[1]": {"settings": "in vivo; cited from earlier work"}, "[2]": {"tested_on": "cholinesterase in hemolyzed whole blood (hemolysate)", "assay": "SIGMA DIAGNOSTICS CHOLINESTERASE (PTC) kit, hemolysate ChE activity in blood samples", "format": "biochemical, human", "settings": "for Hemolysate ChE activity: blood samples from 3 patients, no Nivalin = 1.00", "procedure": "(§1) SIGMA DIAGNOSTICS® CHOLINESTERASE (PTC) kit, available from Sigma Diagnostics, can be used for determining the activity and selectivity of cholinesterase inhibitors.\n(§2) Reactions involved in the cholinesterase assay are as follows:\n(§3) [drawing 4] 5-thio-2-nitrobenzoic acid is assessed by measuring the absorbance at 405 nm. The rate of change in absorbance at 405 nm is directly proportional to cholinesterase activity.\n(§4) The activity of erythrocyte cholinesterase may be calculated on the basis of the measurement of butyrylcholinesterase (pseudocholinesterase) in serum and cholinesterase in hemolyzed whole blood (hemolysate), both measured simultaneously by the method described above, and evaluated according to the hematocrit value according to the formula HchE=(EchE×Hct*)+(PchE×(1−Hct*)) Therefore, EchE=(HchE−(PchE×(1−Hct*))/Hct*. • Hematocrit value expressed as decimal equivalent (i.e. 25%=0.25) In the above formulae, EChE is erythrocyte cholinesterase activity, PChE is plasma cholinesterase activity, HChE is hemolysate cholinesterase activity, and Hct is hematocrit value of the sample.\n(§5) Another way of assessing the cholinesterase activity is to measure the plasma cholinesterase and the cholinesterase in purified hemolyzed erythrocytes. By doing this, the values are obtained directly.\n(§6) Blood samples from 3 patients are tested with the Sigma test."}, "[3]": {"settings": "cited from earlier work"}, "[4]": {"settings": "in humans; cited from earlier work"}, "[5]": {"target": "T1, butyrylcholinesterase (pseudocholinesterase) in serum (Homo sapiens, UniProt P06276)", "T1 construct": "butyrylcholinesterase (pseudocholinesterase) in serum; from tissue; host or cells: serum of patients", "T1 sequence (P06276 29-602)": "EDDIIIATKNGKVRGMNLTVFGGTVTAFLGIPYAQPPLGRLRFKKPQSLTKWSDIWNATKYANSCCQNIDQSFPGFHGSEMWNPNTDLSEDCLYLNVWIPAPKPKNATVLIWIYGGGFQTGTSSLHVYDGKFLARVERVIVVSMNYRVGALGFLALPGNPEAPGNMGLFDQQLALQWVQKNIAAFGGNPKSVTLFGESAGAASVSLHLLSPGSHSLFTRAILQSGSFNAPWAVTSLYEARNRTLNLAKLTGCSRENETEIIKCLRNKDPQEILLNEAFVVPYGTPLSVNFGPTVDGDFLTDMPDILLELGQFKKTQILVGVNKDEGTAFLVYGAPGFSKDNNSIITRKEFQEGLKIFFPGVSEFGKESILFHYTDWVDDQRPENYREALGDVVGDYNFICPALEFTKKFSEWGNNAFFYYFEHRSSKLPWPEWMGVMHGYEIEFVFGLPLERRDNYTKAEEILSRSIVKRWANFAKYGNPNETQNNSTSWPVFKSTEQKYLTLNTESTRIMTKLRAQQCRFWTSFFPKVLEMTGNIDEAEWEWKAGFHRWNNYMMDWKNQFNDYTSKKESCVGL", "assay": "SIGMA DIAGNOSTICS CHOLINESTERASE (PTC) kit, serum ChE activity in blood samples", "format": "biochemical", "settings": "for Serum ChE activity: blood samples from 3 patients, no Nivalin = 1.00", "procedure": "as §1, §2, §3, §4, §5, §6"}, "[6]": {"assay": "side effects in patients treated", "format": "in vivo, human"}, "[7]": {"settings": "cited from earlier work", "remark": "listed apart in the source"}, "[8]": {"settings": "1.25 μg/ml Nivalin added in vitro"}, "[9]": {"settings": "2.50 μg/ml Nivalin added in vitro"}, "[10]": {"settings": "1.25 and 2.5 μg/ml added in vitro"}}, "note": "Counter-ions that a name gives are not always drawn."}
{"compound": "COc1ccc2c3c1O[C@H]1C[C@@H](O)C=C[C@@]31CCN(C)C2", "note": "[Nivalin, Galantamine hydrobromide]", "values": [{"measurement": "elimination half life", "setting": "[1]", "value": "over four hours"}, {"measurement": "Hemolysate ChE activity", "setting": "[2]; [8]", "value": 0.96}, {"measurement": "Hemolysate ChE activity", "setting": "[2]; [9]", "value": 0.86}, {"measurement": "change of hemolysate cholinesterase activity with increased concentration", "setting": "[2]; [10]", "value": "significant reduction"}, {"measurement": "lipid solubility", "setting": "[3]", "value": "lipid soluble"}, {"measurement": "passing the blood-brain barrier", "setting": "[4]", "value": "transverses the blood brain barrier easily"}, {"measurement": "Serum ChE activity", "setting": "[5]; [8]", "value": 0.98}, {"measurement": "Serum ChE activity", "setting": "[5]; [9]", "value": 0.97}, {"measurement": "change of serum activity as a response to the addition", "setting": "[5]; [10]", "value": "do not show any statistically significant change"}]}
{"compound": "[4aS-(4aα,6β,8aR*)]-4a,5,9,10 11,12-hexahydro-3-methoxy-11-methyl-6H-benzofuro[3a,3,2-ef][2]benzazepin-6-ol [Galantamine]", "values": [{"measurement": "complete elimination of metabolites and galantamine", "setting": "[1]", "value": 72, "unit": "h"}, {"measurement": "more severe side effects, share of patients", "setting": "[6]", "value": "4-6%"}, {"measurement": "vomiting and dizziness, share of patients", "setting": "[6]; disappearing after about one week in most cases", "value": "5-10%"}, {"measurement": "slight nausea, share of cases", "setting": "[6]; disappearing after about one week of treatment", "value": "about 30%"}, {"measurement": "solubility in water", "setting": "[3]; at room temperature", "value": "only sparingly soluble"}, {"measurement": "toxicity", "setting": "[7]; in therapeutic concentrations", "value": "relatively low toxicity"}, {"measurement": "severe side effects", "setting": "[7]; in therapeutically effective dosages", "value": "no severe side effects"}, {"measurement": "reported cases of liver toxicity or serious side effects", "setting": "[7]; use as anticurare agent in anesthesiology since around 1958", "value": "without any reported case"}]}
